Reference: PubChem BioAssay AID328 (DTP/NCI, 2004)
“And” between values parts separate entries of the source, which are not always exact repeats. Equal values may be shown once. Inconclusive results and toxic doses are left out. The calls were made as follows: active = survival T/C of 150% or more; inactive = T/C below 125% in these data.

System: BDF1 mice, P388 leukemia ip, median survival T/C
Experiment: NCI In Vivo Anticancer Drug Screen. Data for tumor model P388 Leukemia (intraperitoneal) in B6D2F1 (BDF1) mice
Conditions: endpoint: median survival time, higher = longer survival
How it was run: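 Antitumour effect was judged in vivo: survival in drug-treated mice, normalised to that of vehicle-dosed controls, gives the reported T/C.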

[1] = dose: 50.0 mg/kg/injection, schedule: Q01DX009 (ip), vehicle: saline
[2] = dose: 50.0 mg/kg/injection, schedule: Q01DX009 (ip), vehicle: saline with Tween-80

Measured: T/C

C/C(=C\c1ccc(C)cc1)[N+](=O)[O-]
inactive: dose: 17.5 mg/kg/injection, schedule: Q01DX010 (ip), vehicle: saline 95 % of control | dose: 35.0 mg/kg/injection, schedule: Q01DX010 (ip), vehicle: saline 86 % of control | dose: 70.0 mg/kg/injection, schedule: Q01DX010 (ip), vehicle: saline 90 % of control

CC(/C=N/N=C(N)N)=N\N=C(N)N.O=C([O-])C(=O)[O-].O=C([O-])C(=O)[O-].[Nb+5].[O-][O-].[O-][O-]
inactive: dose: 12.5 mg/kg/injection, schedule: Q01DX009 (ip), vehicle: saline 97 % of control | [1] 90 % of control

C(=C/c1nnc2ncccn12)/c1ccccc1
inactive: [2] 97 % of control | dose: 100.0 mg/kg/injection, schedule: Q01DX009 (ip), vehicle: saline with Tween-80 94 % of control | dose: 200.0 mg/kg/injection, schedule: Q01DX009 (ip), vehicle: saline with Tween-80 110 % of control

CCC/C(C)=N/Nc1ccccn1
inactive: dose: 12.5 mg/kg/injection, schedule: Q01DX009 (ip), vehicle: Klucel (hydroxypropylcellulose) (HPC) 105 % of control | dose: 12.5 mg/kg/injection, schedule: Q01DX009 (ip), vehicle: saline with Tween-80 95 % of control | dose: 25.0 mg/kg/injection, schedule: Q01DX009 (ip), vehicle: Klucel (hydroxypropylcellulose) (HPC) 95 % of control and 110 % of control | dose: 25.0 mg/kg/injection, schedule: Q01DX009 (ip), vehicle: saline with Tween-80 100 % of control | dose: 50.0 mg/kg/injection, schedule: Q01DX009 (ip), vehicle: Klucel (hydroxypropylcellulose) (HPC) 100 % of control and 120 % of control | [2] 91 % of control and 118 % of control | [1] 120 % of control
